Columns and labels:
[1] = target: CSNK1D (Homo sapiens (Human), UniProt P48730); assay: CSNK1D Assay (ADP-Glo, 1 μM ATP); assay type: biochemical; conditions: median, read-out: CSNK1D IC50 [mol/l] (median)
Method: CSNK1D-inhibitory activity of compounds of the present invention in presence of 1 μM adenosine-tri-phosphate (ATP) was quantified employing the CSNK1 D assay as described in the following paragraphs. In essence, the enzyme activity is measured by quantification of the adenosine-di-phosphate (ADP), which is generated as a co-product of the enzyme reaction, via the “ADP-Glo™ Kinase Assay” kit from the company Promega. This detection system works as follows: In a first step the ATP not consumed in the kinase reaction is quantitatively converted to cAMP employing an adenylate cyclase (“ADP-Glo-reagent”), then the adenylate cyclase is stopped and the ADP generated in the kinase reaction converted to ATP which generates in a luciferase-based reaction a glow-luminescence signal (“Kinase Detection Reagent”).
As substrate for the kinase reaction the biotinylated peptide Btn-Ahx-[…] (C-terminus in amide form) was used which can be purchased e.g. from the company Biosyntan (Berlin-Buch, Germany).
For the assay 50 nl of a 100 fold concentrated solution of the test compound in DMSO was pipetted into a white 1536-well microtiter plate (Greiner Bio-One, Frickenhausen, Germany), 2 μL of a solution of CSNK1D in aqueous assay buffer [50 mM HEPES pH 7.5, 10% (v/v) glycerol, 10 mM MgCl2, 50 mM NaCl, 1 mM dithiothreitol, 0.01% (w/v) bovine serum albumin, 0.01% (v/v) Triton X-100] were added and the mixture was incubated for 15 min at 22° C. to allow pre-binding of the test compounds to the enzyme before the start of the kinase reaction. […] The concentration of CSNK1D was adjusted depending of the activity of the enzyme lot and was chosen appropriate to have the assay in the linear range, a typical concentration is about 0.5 ng/μL. The reaction was stopped by the addition of 2.5 μL of “ADP-Glo-reagent” (1:1.5 fold diluted with water) and the resulting mixture was incubated at 22° C. for 1 h to convert the ATP not consumed in the kinase reaction completely […]. Subsequently 2.5 μL of the “kinase detection reagent” (1.2 fold more concentrated than recommended by the producer) were added, the resulting mixture was incubated at 22° C. for 1 h and then the luminescence measured with a suitable measurement instrument (e.g. Viewlux™ from Perkin-Elmer). The amount of emitted light was taken as a measure for the amount of ADP generated and thereby for the activity of the CSNK1D.

[2] = target: CSNK1A1 (Homo sapiens (Human), UniProt P48729); assay: CSNK1A1 Assay 2 (ADP-Glo, 1 μM ATP); assay type: biochemical; conditions: median, read-out: CSNK1A1 Assay 2 IC50 [mol/l] (median)
CSNK1A1, sequence (P48729 whole entry): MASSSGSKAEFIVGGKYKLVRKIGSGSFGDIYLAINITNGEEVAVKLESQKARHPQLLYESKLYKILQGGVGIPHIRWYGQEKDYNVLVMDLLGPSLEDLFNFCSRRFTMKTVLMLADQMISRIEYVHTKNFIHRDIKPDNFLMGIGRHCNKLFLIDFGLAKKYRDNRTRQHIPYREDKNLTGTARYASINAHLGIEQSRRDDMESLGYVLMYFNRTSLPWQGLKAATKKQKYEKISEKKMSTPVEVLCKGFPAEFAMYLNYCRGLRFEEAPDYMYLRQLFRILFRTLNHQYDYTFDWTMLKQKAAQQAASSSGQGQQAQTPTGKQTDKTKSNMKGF
In short: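 Enzyme (~0.0375 ng/μL) preincubated 15 min at 22° C with compound in HEPES pH 7.5 buffer, then reacted with 1 μM ATP and biotin-Ahx-KRRRAL-pS-VASLPGL peptide. ADP product measured by ADP-Glo luminescence after 1 h ATP depletion and 1 h detection at 22° C.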

CSNK1D, sequence (P48730 whole entry): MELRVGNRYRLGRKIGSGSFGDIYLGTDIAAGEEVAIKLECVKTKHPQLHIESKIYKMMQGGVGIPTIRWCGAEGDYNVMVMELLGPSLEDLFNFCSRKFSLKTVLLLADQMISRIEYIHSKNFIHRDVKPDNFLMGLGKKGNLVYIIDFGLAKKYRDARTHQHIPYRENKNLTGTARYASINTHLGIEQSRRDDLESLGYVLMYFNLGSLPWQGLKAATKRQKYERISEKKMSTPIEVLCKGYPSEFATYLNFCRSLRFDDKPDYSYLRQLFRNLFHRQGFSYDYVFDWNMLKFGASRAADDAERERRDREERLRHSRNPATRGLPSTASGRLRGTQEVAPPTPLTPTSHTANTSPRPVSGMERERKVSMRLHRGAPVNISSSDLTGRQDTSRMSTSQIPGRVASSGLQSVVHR

Row | SMILES | IC50 [1] | IC50 [2]
1 | CC(C(=O)Nc1cc(-c2[nH]c3c(CC(F)(F)F)cn(C)c(=O)c3c2-c2ccc(F)cc2)ccn1)c1ccc(F)cc1 (single isomer, unassigned; (+)) [Example 24, (+)-2-(4-fluorophenyl)-N-{4-[3-(4-fluorophenyl)-5-methyl-4-oxo-7-(2,2,2-trifluoroethyl)-4,5-dihydro-1H-pyrrolo[3,2-c]pyridin-2-yl]pyridin-2-yl}propanamide] | 4 nM | 4.5 nM
2 | Cc1cn(C)c(=O)c2c(-c3ccc(F)cc3)c(-c3ccnc(NC(=O)C(C)c4ccc(F)cc4)c3)[nH]c12 (single isomer, unassigned; (+)) [Example 32, (+)-2-(4-fluorophenyl)-N-{4-[3-(4-fluorophenyl)-5,7-dimethyl-4-oxo-4,5-dihydro-1H-pyrrolo[3,2-c]pyridin-2-yl]pyridin-2-yl}propanamide] | 3.6 nM | 4.4 nM
3 | Cc1cn(C)c(=O)c2c(-c3ccc(F)cc3)c(-c3ccnc(NC(=O)C(CC(F)F)c4ccc(F)cc4)c3)[nH]c12 (single isomer, unassigned; (+)) [Example 36, (+)-4,4-difluoro-2-(4-fluorophenyl)-N-{4-[3-(4-fluorophenyl)-5,7-dimethyl-4-oxo-4,5-dihydro-1H-pyrrolo[3,2-c]pyridin-2-yl]pyridin-2-yl}butanamide] | 3.5 nM | 3.5 nM
4 | CN1C(=O)c2c([nH]c(-c3ccnc(NC(=O)C(CC(F)F)c4ccc(F)cc4)c3)c2-c2ccccc2)CC12CCC2 (single isomer, unassigned; (+)) [Example 51, (+)-4,4-difluoro-2-(4-fluorophenyl)-N-[4-(5′-methyl-4′-oxo-3′-phenyl-1′,4′,5′,7′-tetrahydrospiro-[cyclobutane-1,6′-pyrrolo[3,2-c]pyridin]-2′-yl)pyridin-2-yl]butanamide] | 2.4 nM | 1.8 nM
5 | CC(C(=O)Nc1cc(-c2[nH]c3c(c2-c2ccccc2)C(=O)N(C)C2(CCC2)C3)ccn1)c1ccc(F)cc1 (single isomer, unassigned; (+)) [Example 54, (+)-2-(4-fluorophenyl)-N-[4-(5′-methyl-4′-oxo-3′-phenyl-1′,4′,5′,7′-tetrahydrospiro[cyclobutane-1,6′-pyrrolo[3,2-c]pyridin]-2′-yl)pyridin-2-yl]propanamide] | 3.6 nM | 1.6 nM
6 | CC(C(=O)Nc1cc(-c2[nH]c3c(CC(F)(F)F)cn(C)c(=O)c3c2-c2ccccc2)ccn1)c1ccc(F)cc1 (single isomer, unassigned; (-)) [Example 16, (−)-2-(4-fluorophenyl)-N-{4-[5-methyl-4-oxo-3-phenyl-7-(2,2,2-trifluoroethyl)-4,5-dihydro-1H-pyrrolo[3,2-c]pyridin-2-yl]pyridin-2-yl}propanamide] | 4.4 nM | 7.7 nM
7 | Cn1cc(CC(F)(F)F)c2[nH]c(-c3ccnc(NC(=O)C(CC(F)F)c4ccc(F)cc4)c3)c(-c3ccccc3)c2c1=O (single isomer, unassigned; (-)) [Example 19, (−)-4,4-difluoro-2-(4-fluorophenyl)-N-{4-[5-methyl-4-oxo-3-phenyl-7-(2,2,2-trifluoroethyl)-4,5-dihydro-1H-pyrrolo[3,2-c]pyridin-2-yl]pyridin-2-yl}butanamide] | 14 nM | 22 nM
8 | CC(C(=O)Nc1cc(-c2[nH]c3c(CC(F)(F)F)cn(C)c(=O)c3c2-c2ccc(F)cc2)ccn1)c1ccc(F)cc1 (single isomer, unassigned; (-)) [Example 23, (−)-2-(4-fluorophenyl)-N-{4-[3-(4-fluorophenyl)-5-methyl-4-oxo-7-(2,2,2-trifluoroethyl)-4,5-dihydro-1H-pyrrolo[3,2-c]pyridin-2-yl]pyridin-2-yl}propanamide] | 37 nM | 85 nM
9 | Cc1cn(C)c(=O)c2c(-c3ccc(F)cc3)c(-c3ccnc(NC(=O)C(C)c4ccc(F)cc4)c3)[nH]c12 (single isomer, unassigned; (-)) [Example 31, (−)-2-(4-fluorophenyl)-N-{4-[3-(4-fluorophenyl)-5,7-dimethyl-4-oxo-4,5-dihydro-1H-pyrrolo[3,2-c]pyridin-2-yl]pyridin-2-yl}propanamide] | 14 nM | 53 nM
10 | Cc1cn(C)c(=O)c2c(-c3ccc(F)cc3)c(-c3ccnc(NC(=O)C(CC(F)F)c4ccc(F)cc4)c3)[nH]c12 (single isomer, unassigned; (-)) [Example 35, (−)-4,4-difluoro-2-(4-fluorophenyl)-N-{4-[3-(4-fluorophenyl)-5,7-dimethyl-4-oxo-4,5-dihydro-1H-pyrrolo[3,2-c]pyridin-2-yl]pyridin-2-yl}butanamide] | 22 nM | 66 nM
11 | CN1C(=O)c2c([nH]c(-c3ccnc(NC(=O)C(CC(F)F)c4ccc(F)cc4)c3)c2-c2ccccc2)CC12CCC2 (single isomer, unassigned; (-)) [Example 50, (−)-4,4-difluoro-2-(4-fluorophenyl)-N-[4-(5′-methyl-4′-oxo-3′-phenyl-1′,4′,5′,7′-tetrahydrospiro-[cyclobutane-1,6′-pyrrolo[3,2-c]pyridin]-2′-yl)pyridin-2-yl]butanamide] | 9.8 nM | 12 nM
12 | CC(C(=O)Nc1cc(-c2[nH]c3c(c2-c2ccccc2)C(=O)N(C)C2(CCC2)C3)ccn1)c1ccc(F)cc1 (single isomer, unassigned; (-)) [Example 53, (−)-2-(4-fluorophenyl)-N-[4-(5′-methyl-4′-oxo-3′-phenyl-1′,4′,5′,7′-tetrahydrospiro[cyclobutane-1,6′-pyrrolo[3,2-c]pyridin]-2′-yl)pyridin-2-yl]propanamide] | 16 nM | 21 nM
13 | CN1CCc2[nH]c(-c3ccnc(NC(=O)Cc4ccc(F)cc4)c3)c(-c3cccnc3)c2C1=O [Example 12, 2-(4-fluorophenyl)-N-{4-[5-methyl-4-oxo-3-(pyridin-3-yl)-4,5,6,7-tetrahydro-1H-pyrrolo[3,2-c]pyridin-2-yl]pyridin-2-yl}acetamide] | 13 nM | 10 nM
14 | CC(C(=O)Nc1cc(-c2[nH]c3c(c2-c2ccccc2)C(=O)N(C)CC3CC(F)(F)F)ccn1)c1ccc(F)cc1 (stereo not drawn) [Example 13, 2-(4-fluorophenyl)-N-{4-[5-methyl-4-oxo-3-phenyl-7-(2,2,2-trifluoroethyl)-4,5,6,7-tetrahydro-1H-pyrrolo[3,2-c]pyridin-2-yl]pyridin-2-yl}propanamide] | 3.9 nM | 3.5 nM
15 | CN1CC(CC(F)(F)F)c2[nH]c(-c3ccnc(NC(=O)C(CC(F)F)c4ccc(F)cc4)c3)c(-c3ccccc3)c2C1=O (stereo not drawn) [Example 17, 4,4-difluoro-2-(4-fluorophenyl)-N-{4-[5-methyl-4-oxo-3-phenyl-7-(2,2,2-trifluoroethyl)-4,5,6,7-tetrahydro-1H-pyrrolo[3,2-c]pyridin-2-yl]pyridin-2-yl}butanamide] | 4.3 nM | 4.7 nM
16 | CC(C(=O)Nc1cc(-c2[nH]c3c(c2-c2ccc(F)cc2)C(=O)N(C)CC3CC(F)(F)F)ccn1)c1ccc(F)cc1 (stereo not drawn) [Example 21, 2-(4-fluorophenyl)-N-{4-[3-(4-fluorophenyl)-5-methyl-4-oxo-7-(2,2,2-trifluoroethyl)-4,5,6,7-tetrahydro-1H-pyrrolo[3,2-c]pyridin-2-yl]pyridin-2-yl}propanamide] | 6.6 nM | 8.6 nM
17 | CN1CC(CC(F)(F)F)c2[nH]c(-c3ccnc(NC(=O)C(CC(F)F)c4ccc(F)cc4)c3)c(-c3ccc(F)cc3)c2C1=O (stereo not drawn) [Example 25, 4,4-difluoro-2-(4-fluorophenyl)-N-{4-[3-(4-fluorophenyl)-5-methyl-4-oxo-7-(2,2,2-trifluoroethyl)-4,5,6,7-tetrahydro-1H-pyrrolo[3,2-c]pyridin-2-yl]pyridin-2-yl}butanamide] | 5 nM | 6.4 nM
18 | CC1CN(C)C(=O)c2c1[nH]c(-c1ccnc(NC(=O)C(C)c3ccc(F)cc3)c1)c2-c1ccc(F)cc1 (stereo not drawn) [Example 29, 2-(4-fluorophenyl)-N-{4-[3-(4-fluorophenyl)-5,7-dimethyl-4-oxo-4,5,6,7-tetrahydro-1H-pyrrolo[3,2-c]pyridin-2-yl]pyridin-2-yl}propanamide] | 4.1 nM | 2.9 nM

Source: US20230322767A1, “ARYL SUBSTITUTED PYRROLO-PYRIDINONES AND THERAPEUTIC USES THEREOF” (Bayer Aktiengesellschaft, priority 2020, published 2023)
